The source of these data is patent US9102701B2, “17-hydroxy-17-pentafluoroethyl-estra-4,9(10)-diene-11-ethynylphenyl derivatives, methods for the production thereof and use thereof for treating diseases” (Bayer Intellectual Property GmbH, priority 2009, dated 2015).

For test [1], the target named is T1, human progesterone receptor A (Homo sapiens, UniProt P06401).
T1 construct: expressed in transfected cells; host or cells: SK-N-MC human neuroblastoma cells, stably transfected with pRChPR-A-neo and pMMTV-LUC
T1 sequence (P06401 1-769 isoform P06401-2): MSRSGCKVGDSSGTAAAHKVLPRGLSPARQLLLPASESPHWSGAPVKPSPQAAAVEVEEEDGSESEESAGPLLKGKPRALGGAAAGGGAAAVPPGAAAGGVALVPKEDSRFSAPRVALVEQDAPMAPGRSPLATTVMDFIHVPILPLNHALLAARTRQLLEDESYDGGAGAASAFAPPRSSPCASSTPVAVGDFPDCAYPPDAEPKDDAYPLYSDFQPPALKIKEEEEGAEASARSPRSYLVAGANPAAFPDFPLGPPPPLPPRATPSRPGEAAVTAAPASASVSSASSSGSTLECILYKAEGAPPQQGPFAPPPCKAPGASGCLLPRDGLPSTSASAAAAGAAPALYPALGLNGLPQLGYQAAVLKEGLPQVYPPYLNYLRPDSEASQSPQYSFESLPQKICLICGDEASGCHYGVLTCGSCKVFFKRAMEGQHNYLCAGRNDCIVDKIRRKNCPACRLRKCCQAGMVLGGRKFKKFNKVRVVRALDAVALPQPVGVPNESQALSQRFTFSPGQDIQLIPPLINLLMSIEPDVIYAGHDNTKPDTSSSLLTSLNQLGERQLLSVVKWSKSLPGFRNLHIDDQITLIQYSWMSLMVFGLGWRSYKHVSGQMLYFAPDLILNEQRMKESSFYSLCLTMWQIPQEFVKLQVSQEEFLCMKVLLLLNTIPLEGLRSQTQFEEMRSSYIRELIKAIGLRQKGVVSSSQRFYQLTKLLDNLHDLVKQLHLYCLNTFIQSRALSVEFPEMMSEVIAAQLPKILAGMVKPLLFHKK
In words: Progesterone receptor-antagonistic action in stably transfected SK-N-MC cells, PR-A, MMTV-LUC reporter. In kind it is cell-based. Conditions: read-out: IC50 PR-A. Here is the method:
(§1) Determination of Progesterone Receptor-Antagonistic Action in Stable Transfectants of Human Neuroblastoma Cells (SK-N-MC Cells) with the Human Progesterone a or Progesterone B Receptor and an MN-LUC Reporter Construct
(§2) SK-N-MC cells (human neuroblastoma cells) which have been stably transfected with plasmids expressing the human progesterone receptor B (pRChPR-B-neo) or the human progesterone receptor A (pRChPR-A-neo) and a reporter construct (pMMTV-LUC) were incubated for 24 hours either in the absence (negative control) or in the presence of ascending amounts of the particular test compound (0.01 nmol/l, 0.1 nmol/l, 1 nmol/l, 10 nmol/l, 100 nmol/l and […]), in order to determine the agonistic efficacy. As a positive control of the reporter gene induction, the cells were treated with the synthetic gestagen promegestone (0.01 nmol/l, 0.1 nmol/l, 1 nmol/l, 10 nmol/l, 100 nmol/l and […]). To determine the antagonistic activity, the cells were treated with 0.1 nmol/l promegestone and additionally with ascending amounts of the particular test compound (0.01 nmol/l, 0.1 nmol/l, 1 nmol/l, 10 nmol/l, 100 nmol/l and […]). The activity of the reporter gene LUC (LUC=luciferase) was determined in the cell lysates and measured as RLU (relative light units). All measurements are reported as % efficacy and as EC50 and IC50 concentrations.

Test [2] deals with T2, human progesterone receptor B (Homo sapiens, UniProt P06401).
T2 construct: expressed in transfected cells; host or cells: SK-N-MC human neuroblastoma cells, stably transfected with pRChPR-B-neo and pMMTV-LUC
T2 sequence (P06401 1-933): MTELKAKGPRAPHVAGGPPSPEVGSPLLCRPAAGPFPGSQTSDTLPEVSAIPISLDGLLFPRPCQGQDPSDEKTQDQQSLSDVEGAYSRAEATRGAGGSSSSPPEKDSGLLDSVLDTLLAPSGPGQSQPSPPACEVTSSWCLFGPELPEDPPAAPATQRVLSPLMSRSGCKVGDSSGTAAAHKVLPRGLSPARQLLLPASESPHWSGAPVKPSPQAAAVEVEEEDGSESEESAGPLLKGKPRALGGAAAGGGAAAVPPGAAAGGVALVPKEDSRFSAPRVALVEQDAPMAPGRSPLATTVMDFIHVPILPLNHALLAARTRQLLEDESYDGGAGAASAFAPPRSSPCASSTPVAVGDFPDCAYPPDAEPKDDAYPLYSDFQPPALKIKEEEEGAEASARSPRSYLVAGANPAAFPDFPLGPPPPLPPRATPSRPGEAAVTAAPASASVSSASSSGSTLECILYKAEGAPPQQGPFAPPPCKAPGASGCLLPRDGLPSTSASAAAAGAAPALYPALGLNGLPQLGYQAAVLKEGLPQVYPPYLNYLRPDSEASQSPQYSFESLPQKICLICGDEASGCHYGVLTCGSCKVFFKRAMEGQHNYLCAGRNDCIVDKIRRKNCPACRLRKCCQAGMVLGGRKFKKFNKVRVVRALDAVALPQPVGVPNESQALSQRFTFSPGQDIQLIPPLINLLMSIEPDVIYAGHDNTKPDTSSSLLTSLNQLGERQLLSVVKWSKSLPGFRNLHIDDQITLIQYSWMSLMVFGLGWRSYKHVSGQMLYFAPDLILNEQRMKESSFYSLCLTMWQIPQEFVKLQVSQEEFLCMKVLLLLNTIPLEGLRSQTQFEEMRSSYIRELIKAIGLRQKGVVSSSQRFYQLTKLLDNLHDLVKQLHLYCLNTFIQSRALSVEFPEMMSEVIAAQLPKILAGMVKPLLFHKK
As to the kind of experiment: Progesterone receptor-antagonistic action in stably transfected SK-N-MC cells, PR-B, MMTV-LUC reporter. Format: cell-based. Conditions: read-out: IC50 PR-B. Here is the method: as §1, §2

Consider `Cc1ccc(NC(=O)NCC#Cc2ccc([C@H]3C[C@@]4(C)[C@@H](CC[C@@]4(O)C(F)(F)C(F)(F)F)[C@@H]4CCC5=CC(=O)CCC5=C43)cc2)cc1` [Example 38, 1-{3-[4-((8S,11R,13S,14S,17S)-17-hydroxy-13-methyl-3-oxo-17-pentafluoroethyl-2,3,6,7,8,11,12,13,14,15,16,17-dodecahydro-1H-cyclopenta[a]phenanthren-11-yl)phenyl]prop-2-ynyl}-3-(4-methylphenyl)urea], for which the IC50 in test [1] was determined as 0.2 nM; in test [2], 0.3 nM.
On to `C[C@]12C[C@H](c3ccc(C#CCNC(=O)NCc4ccccc4)cc3)C3=C4CCC(=O)C=C4CCC3C1CC[C@@]2(O)C(F)(F)C(F)(F)F` (stereo partly drawn) [Example 39, 1-benzyl-3-{3-[4-((8S,11R,13S,14S,17S)-17-hydroxy-13-methyl-3-oxo-17-pentafluoroethyl-2,3,6,7,8,11,12,13,14,15,16,17-dodecahydro-1H-cyclopenta[a]phenanthren-1′-yl)phenyl]prop-2-ynyl}urea], for which the IC50 in test [1] and in test [2] was 0.1 nM each time.
Consider `CC(C)(C)NC(=O)NCC#Cc1ccc([C@H]2C[C@@]3(C)[C@@H](CC[C@@]3(O)C(F)(F)C(F)(F)F)[C@@H]3CCC4=CC(=O)CCC4=C32)cc1` [Example 40, 1-{3-[4-((8S,11R,13S,14S,17S)-17-hydroxy-13-methyl-3-oxo-17-pentafluoroethyl-2,3,6,7,8,11,12,13,14,15,16,17-dodecahydro-1H-cyclopenta[a]phenanthren-11-yl)phenyl]prop-2-ynyl}-3-tert-butylurea], for which the values for the half-maximal inhibitory concentration (IC50) in test [1] and in test [2] were 0.1 nM and 0.3 nM, respectively.
Regarding `C=CCNC(=O)NCC#Cc1ccc([C@H]2C[C@@]3(C)[C@@H](CC[C@@]3(O)C(F)(F)C(F)(F)F)[C@@H]3CCC4=CC(=O)CCC4=C32)cc1` [Example 41, 1-allyl-3-{3-[4-((8S,11R,13S,14S,17S)-17-hydroxy-13-methyl-3-oxo-17-pentafluoroethyl-2,3,6,7,8,11,12,13,14,15,16,17-dodecahydro-1H-cyclopenta[a]phenanthren-1′-yl)phenyl]prop-2-ynyl}urea], the IC50 in test [1] and in test [2] was 0.1 nM throughout.
With `CCOC(=O)CNC(=O)NCC#Cc1ccc([C@H]2C[C@@]3(C)C(CC[C@@]3(O)C(F)(F)C(F)(F)F)C3CCC4=CC(=O)CCC4=C32)cc1` (stereo partly drawn) [Example 42, (3-{3-[4-((8S,11R,13S,14S,17S)-17-hydroxy-13-methyl-3-oxo-17-pentafluoroethyl-2,3,6,7,8,11,12,13,14,15,16,17-dodecahydro-1H-cyclopenta[a]phenanthren-1′-yl)phenyl]prop-2-ynyl}ureido)acetic acid ethyl ester], the figures for the IC50 in test [1] and in test [2] were 0.7 nM and 0.8 nM, respectively.
For `C[C@]12C[C@H](c3ccc(C#CCNC(=O)Nc4ccc(N5CCCCC5)cc4)cc3)C3=C4CCC(=O)C=C4CC[C@H]3[C@@H]1CC[C@@]2(O)C(F)(F)C(F)(F)F` [Example 43, 1-{3-[4-((8S,11R,13S,14S,17S)-17-hydroxy-13-methyl-3-oxo-17-pentafluoroethyl-2,3,6,7,8,11,12,13,14,15,16,17-dodecahydro-1H-cyclopenta[a]phenanthren-11-yl)phenyl]prop-2-ynyl}-3-(4-piperidin-1-ylphenyl)urea], the half-maximal inhibitory concentration (IC50) came out at 0.8 nM in test [1] and 0.9 nM in test [2].
Consider `C=CCNC(=O)OCC#Cc1ccc([C@H]2C[C@@]3(C)C(CC[C@@]3(O)C(F)(F)C(F)(F)F)C3CCC4=CC(=O)CCC4=C32)cc1` (stereo partly drawn) [Example 44, allylcarbamic acid 3-[4-((8S,11R,13S,14S,17S)-17-hydroxy-13-methyl-3-oxo-17-pentafluoroethyl-2,3,6,7,8,11,12,13,14,15,16,17-dodecahydro-1H-cyclopenta[a]phenanthren-1′-yl)phenyl]prop-2-ynyl ester], for which the IC50 in test [1] and in test [2] was 0.01 nM throughout.
Take `CCNC(=O)OCC#Cc1ccc([C@H]2C[C@@]3(C)C(CC[C@@]3(O)C(F)(F)C(F)(F)F)C3CCC4=CC(=O)CCC4=C32)cc1` (stereo partly drawn) [Example 45, ethylcarbamic acid 3-[4-((8S,11R,13S,14S,17S)-17-hydroxy-13-methyl-3-oxo-17-pentafluoroethyl-2,3,6,7,8,11,12,13,14,15,16,17-dodecahydro-1H-cyclopenta[a]phenanthren-1′-yl)phenyl]prop-2-ynyl ester]: the IC50 in test [1] and in test [2] was 0.01 nM in each case.
Take `C[C@]12C[C@H](c3ccc(C#CCOC(=O)Nc4ccccc4)cc3)C3=C4CCC(=O)C=C4CCC3C1CC[C@@]2(O)C(F)(F)C(F)(F)F` (stereo partly drawn) [Example 46, phenylcarbamic acid 3-[4-((8S,11R,13S,14S,17S)-17-hydroxy-13-methyl-3-oxo-17-pentafluoroethyl-2,3,6,7,8,11,12,13,14,15,16,17-dodecahydro-1H-cyclopenta[a]phenanthren-1′-yl)phenyl]prop-2-ynyl ester]: the IC50 in test [1] and in test [2] was 0.01 nM each time.
In the case of `Cc1ccc(NC(=O)OCC#Cc2ccc([C@H]3C[C@@]4(C)C(CC[C@@]4(O)C(F)(F)C(F)(F)F)C4CCC5=CC(=O)CCC5=C43)cc2)cc1` (stereo partly drawn) [Example 47, 4-methylphenylcarbamic acid 3-[4-((8S,11R,13S,14S,17S)-17-hydroxy-13-methyl-3-oxo-17-pentafluoroethyl-2,3,6,7,8,11,12,13,14,15,16,17-dodecahydro-1H-cyclopenta[a]phenanthren-1′-yl)phenyl]prop-2-ynyl ester], the IC50 in test [1] and in test [2] was 0.01 nM each time.
Turning to `C[C@]12C[C@H](c3ccc(C#CCOC(=O)Nc4ccc(F)cc4)cc3)C3=C4CCC(=O)C=C4CCC3C1CC[C@@]2(O)C(F)(F)C(F)(F)F` (stereo partly drawn) [Example 48, 4-fluorophenylcarbamic acid 3-[4-((8S,11R,13S,14S,17S)-17-hydroxy-13-methyl-3-oxo-17-pentafluoroethyl-2,3,6,7,8,11,12,13,14,15,16,17-dodecahydro-1H-cyclopenta[a]phenanthren-1′-yl)phenyl]prop-2-ynyl ester], the IC50 in test [1] is 0.09 nM; in test [2], 0.08 nM.
On to `CC(C)NC(=O)OCC#Cc1ccc([C@H]2C[C@@]3(C)C(CC[C@@]3(O)C(F)(F)C(F)(F)F)C3CCC4=CC(=O)CCC4=C32)cc1` (stereo partly drawn) [Example 49, isopropylcarbamic acid 3-[4-((8S,11R,13S,14S,17S)-17-hydroxy-13-methyl-3-oxo-17-pentafluoroethyl-2,3,6,7,8,11,12,13,14,15,16,17-dodecahydro-1H-cyclopenta[a]phenanthren-1′-yl)phenyl]prop-2-ynyl ester], for which the IC50 in test [1] amounted to 0.01 nM; in test [2], 0.07 nM.

As usually defined, the IC50 is the concentration at which inhibition is half-maximal.
